Source: patent US9695155B2, “Herbicidal substituted pyrimidinyloxy benzene compounds” (E. I. DU PONT DE NEMOURS AND COMPANY, priority 2013, dated 2017)

Legend:
horseweed = test: Test E postemergence; assay type: in vivo, Conyza canadensis
Text: Seeds of plant species selected from corn (Zea mays), soybean (Glycine max), velvetleaf (Abutilon theophrasti), lambsquarters (Chenopodium album), wild poinsettia (Euphorbia heterophylla), palmer pigweed (Amaranthus palmeri), waterhemp (common waterhemp, Amaranthus rudis), surinam grass (Brachiaria decumbens), large (Lg) crabgrass (Digitaria sanguinalis), Brazilian crabgrass (Digitaria horizontalis), fall panicum (Panicum dichotomiflorum), giant foxtail (Setaria faberii), green foxtail (Setaria viridis), goosegrass (Eleusine indica), johnsongrass (Sorghum halepense), ragweed (common ragweed, Ambrosia elatior), barnyardgrass (Echinochloa crus-galli), sandbur (southern sandbur, Cenchrus echinatus), arrowleaf sida (Sida rhombifolia), Italian ryegrass (Lolium multiflorum), dayflower (Virginia (VA) dayflower, Commelina virginica), field bindweed (Convolvulus arvensis), morningglory (Ipomoea coccinea), nightshade (eastern black nightshade, Solanum ptycanthum), kochia (Kochia scoparia), yellow nutsedge (Cyperus esculentus), cocklebur (common cocklebur, Xanthium strumarium), smartweed (ladysthumb smartweed, and hairy beggarticks (Bidens pilosa), were planted into a silt loam soil and treated preemergence with test chemicals formulated in a non-phytotoxic solvent mixture which included a surfactant.
At the same time, plants from these crop and weed species and also horseweed (Canada horseweed, Conyza canadensis), waterhemp_RES1, (ALS & Triazine resistant common waterhemp, Amaranthus rudis), and waterhemp_RES2, (ALS & HPPD resistant common waterhemp, Amaranthus rudis) were planted in pots containing Redi-Earth® planting medium (Scotts Company, 14111 Scottslawn Road, Marysville, Ohio 43041) comprising spaghnum peat moss, vermiculite, wetting agent and starter nutrients were treated with postemergence applications of test chemicals formulated in the same manner. Plants ranged in height from 2 to 18 cm for postemergence treatments (1- to 4-leaf stage). Treated plants and controls were maintained in a greenhouse for 14 to 21 days, after which time all species were compared to controls and visually evaluated. Plant response ratings, summarized in Table E, are based on a scale of 0 to 100 where 0 is no effect and 100 is complete control. A dash (-) response means no test result.

bermudagrass = test: Test F preemergence; assay type: in vivo, Cynodon dactylon; settings: 21 days, scale 0 to 100
Text: (§1) Seeds of plant species selected from bermudagrass (Cynodon dactylon), surinam grass (Brachiaria decumbens), large (Lg) crabgrass (Digitaria sanguinalis), crabgrass, naked (naked crabgrass, Digitaria nuda), foxtail, green (green foxtail, Setaria viridis), johnsongrass (Sorghum halepense), kochia (Kochia scoparia), morningglory (pitted morningglory, Ipomoea lacunosa), nutsedge, purple (purple nutsedge, Cyperus rotundus), ragweed (common ragweed, Ambrosia elatior), mustard, black (black mustard, Brassica nigra), guineagrass (Panicum maximum), dallisgrass (Paspalum dilatatum), barnyardgrass (Echinochloa crus-galli), sandbur (southern sandbur, Cenchrus echinatus), sowthistle (common sowthistle, Sonchus oleraceous), Italian ryegrass (Lolium multiflorum), signalgrass (broadleaf signalgrass, Brachiaria platyphylla), dayflower (Virginia (VA) dayflower, Commelina virginica), bluegrass (annual bluegrass, Poa annua), quackgrass (Elytrigia repens), mallow (common mallow, Malva sylvestris), buckwheat, wild (wild buckwheat, Polygonum convolvulus), leafy spurge (Euphorbia esula), chickweed (common chickweed, Stellaria media), wild poinsettia (Euphorbia heterophylla), and pigweed (Amaranthus retroflexus) were planted into a blend of loam soil and sand and treated preemergence with test chemicals formulated in a non-phytotoxic solvent mixture which included a surfactant.
(§2) Treated plants and controls were maintained in a greenhouse for 21 days, after which time all species were compared to controls and visually evaluated. Plant response ratings, summarized in Table F, are based on a scale of 0 to 100 where 0 is no effect and 100 is complete control. A dash (-) response means no test result.

mallow = test: Test F preemergence; assay type: in vivo, Malva sylvestris; settings: 21 days, scale 0 to 100
Text: as §1, §2

bluegrass = test: Test D preemergence; assay type: in vivo, Poa annua; settings: Poa annua, pre-emergence; for pest or weed control at 16 g/ha: 16 g ai/ha, scale 0 (no effect) to 100 (complete control), read-out: Plant response rating, Bluegrass; for pest or weed control at 31 g/ha: 31 g ai/ha; for pest or weed control at 62 g/ha: 62 g ai/ha; for pest or weed control at 125 g/ha: 125 g ai/ha
Text: (§3) Seeds of plant species selected from bluegrass (annual bluegrass, Poa annua), blackgrass (Alopecurus myosuroides), canarygrass (littleseed canarygrass, Phalaris minor), chickweed (common chickweed, Stellaria media), galium (catchweed bedstraw, Galium aparine), bromegrass, downy (downy bromegrass, Bromus tectorum), field poppy (Papaver rhoeas), field violet (Viola arvensis), green foxtail (Setaria viridis), deadnettle (henbit deadnettle, Lamium amplexicaule), Italian ryegrass (Lolium multiflorum), kochia (Kochia scoparia), lambsquarters (Chenopodium album), oilseed rape (Brassica napus), pigweed (Amaranthus retroflexus), chamomile (scentless chamomile, Matricaria inodora), Russian thistle (Salsola kali), speedwell (bird's-eye speedwell, Veronica persica), spring barley (Hordeum vulgare), spring wheat (Triticum aestivum), wild buckwheat (Polygonum convolvulus), wild mustard (Sinapis arvensis), wild oat (Avena fatua), wild radish (Raphanus raphanistrum), windgrass (Apera spica-venti), winter barley (Hordeum vulgare), and winter wheat (Triticum aestivum) were planted into a silt loam soil and treated preemergence with test chemicals formulated in a non-phytotoxic solvent mixture which included a surfactant.
(§4) At the same time, these species were planted in pots containing Redi-Earth® planting medium (Scotts Company, 14111 Scottslawn Road, Marysville, Ohio 43041) comprising spaghnum peat moss, vermiculite, wetting agent and starter nutrients and treated with postemergence applications of the test chemicals formulated in the same manner. Plants ranged in height from 2 to 18 cm (1- to 4-leaf stage). Treated plants and controls were maintained in a controlled growth environment for 7 to 21 days after which time all species were compared to controls and visually evaluated. Plant response ratings, summarized in Table D, are based on a scale of 0 to 100 where 0 is no effect and 100 is complete control. A dash (-) response means no test result.

pigweed = test: Test D postemergence; assay type: in vivo, Amaranthus retroflexus; settings: Amaranthus retroflexus, post-emergence; for pest or weed control at 16 g/ha: 16 g ai/ha, scale 0-100, read-out: Plant response rating, Pigweed; for pest or weed control at 31 g/ha: 31 g ai/ha; for pest or weed control at 62 g/ha: 62 g ai/ha; for pest or weed control at 125 g/ha: 125 g ai/ha
Text: as §3, §4

Russian thistle [1] = test: Test D preemergence; assay type: in vivo, Salsola kali; parameters: key: 0 = no effect, 100 = complete control
Text: as §3, §4

Russian thistle [2] = test: Test D postemergence; assay type: in vivo, Salsola kali
Text: as §3, §4

[3] = Postemergence, 31 g ai/ha, scale 0 to 100
[4] = Postemergence, 62 g ai/ha, scale 0 to 100
[5] = Postemergence, 125 g ai/ha, scale 0 to 100
[6] = postemergence, 16 g ai/ha, scale 0 to 100, 0 no effect, 100 complete control
[7] = scale 0-100, read-out: Plant response rating, Bluegrass
[8] = scale 0 to 100 (0 no effect, 100 complete control), read-out: Plant response rating, Pigweed

Row | Compound | Plant response rating, Horseweed (horseweed; [3]) | Plant response rating, Horseweed (horseweed; [4]) | Plant response rating, Horseweed (horseweed; [5]) | Plant response rating, Horseweed (horseweed; [6]) | Plant response rating, Bermudagrass (bermudagrass; 16 g ai/ha) | Plant response rating, Bermudagrass (bermudagrass; 31 g ai/ha) | Plant response rating, Bermudagrass (bermudagrass; 62 g ai/ha) | Plant response rating, Bermudagrass (bermudagrass; 125 g ai/ha) | Plant response rating, Bermudagrass (bermudagrass; 250 g ai/ha) | Plant response rating, Mallow (mallow; 16 g ai/ha) | Plant response rating, Mallow (mallow; 31 g ai/ha) | Plant response rating, Mallow (mallow; 62 g ai/ha) | Plant response rating, Mallow (mallow; 125 g ai/ha) | Plant response rating, Mallow (mallow; 250 g ai/ha) | pest or weed control at 31 g/ha (bluegrass; [7]) | pest or weed control at 62 g/ha (bluegrass; [7]) | pest or weed control at 125 g/ha (bluegrass; [7]) | pest or weed control at 31 g/ha (pigweed; [8]) | pest or weed control at 62 g/ha (pigweed; [8]) | pest or weed control at 125 g/ha (pigweed; [8]) | also measured
1 | Clc1cnc(Oc2cccc(Cl)c2-n2cc(I)cn2)nc1 [Compound 181] | 0 | 5 | 5 | 0 |  |  |  |  |  |  |  |  |  |  |  |  |  |  |  |  | 
2 | N#Cc1cccc(Oc2ncc(F)cn2)c1-n1cc(C(F)(F)F)cn1 [Compound 79, 3-[(5-fluoro-2-pyrimidinyl)oxy]-2-[4-(trifluoromethyl)-1H-pyrazol-1-yl]benzonitrile] | 0 | 20 | 30 | 0 | 98 | 100 | 100 | 100 | 100 | 98 | 100 | 100 | 100 | 100 |  |  |  |  |  |  | 
3 | N#Cc1cccc(Oc2ncc(Cl)cn2)c1-n1cc(OCC(F)(F)F)cn1 [Compound 274, 3-[(5-chloro-2-pyrimidinyl)oxy]-2-[4-(2,2,2-trifluoroethoxy)-1H-pyrazol-1-yl]benzonitrile] |  |  |  |  | 85 | 100 | 100 | 100 | 100 | 98 | 98 | 98 | 100 | 100 | 5% | 30% | 70% | 95% | 95% | 95% | pest or weed control at 16 g/ha (bluegrass): 0%; pest or weed control at 16 g/ha (pigweed): 75%
4 | Fc1cccc(Oc2ncc(Cl)cn2)c1-n1cc(C(F)F)nn1 [Compound 141, 5-chloro-2-[2-[4-(difluoromethyl)-1H-1,2,3-triazol-1-yl]-3-fluorophenoxy]pyrimidine] |  |  |  |  |  |  |  |  |  |  |  |  |  |  | 35% | 90% | 90% | 98% | 100% | 100% | pest or weed control at 16 g/ha (bluegrass): 15%; Plant response rating, Russian Thistle (Russian thistle [1]; 16 g ai/ha, scale 0 (no effect) to 100 (complete control)): 15; Plant response rating, Russian Thistle (Russian thistle [1]; 31 g ai/ha, scale 0 (no effect) to 100 (complete control)): 50; Plant response rating, Russian Thistle (Russian thistle [1]; 62 g ai/ha, scale 0-100): 75; Plant response rating, Russian Thistle (Russian thistle [1]; 125 g ai/ha, scale 0-100): 100; pest or weed control at 16 g/ha (pigweed): 98%; Plant response rating, Russian Thistle (Russian thistle [2]; 16 g ai/ha, scale 0-100): 40; Plant response rating, Russian Thistle (Russian thistle [2]; 31 g ai/ha, scale 0 to 100 (0 no effect, 100 complete control)): 40; Plant response rating, Russian Thistle (Russian thistle [2]; 62 g ai/ha, scale 0 to 100 (0 no effect, 100 complete control)): 85; Plant response rating, Russian Thistle (Russian thistle [2]; 125 g ai/ha, scale 0 to 100 (0 no effect, 100 complete control)): 95
5 | N#Cc1cccc(Oc2ncc(Cl)cn2)c1-n1cc(Br)cn1 [Compound 52, 2-(4-bromo-1H-pyrazol-1-yl)-3-[(5-chloro-2-pyrimidinyl)oxy]benzonitrile] |  |  |  |  |  |  |  |  |  |  |  |  |  |  | 0% | 0% | 10% | 80% | 85% | 85% | pest or weed control at 250 g/ha (bluegrass; 250 g ai/ha, scale 0-100, read-out: Plant response rating, Bluegrass): 60%; pest or weed control at 250 g/ha (pigweed; 250 g ai/ha, scale 0 to 100 (0 no effect, 100 complete control), read-out: Plant response rating, Pigweed): 95%
6 | N#Cc1cccc(Oc2ncc(Cl)cn2)c1-n1cc(OC(F)F)cn1 [Compound 97] |  |  |  |  | 80 | 95 | 100 | 100 | 100 | 30 | 75 | 98 | 100 | 100 |  |  |  |  |  |  | 
